Results from US20220008553A1, “ANTI-ERBB2 ANTIBODY-DRUG CONJUGATE AND COMPOSITION THEREOF, PREPARATION METHOD THEREFOR, AND USE THEREOF” (SICHUAN KELUN-BIOTECH BIOPHARMACEUTICAL CO., LTD., priority 2015, published 2022).

Assays:
[1] = tested on: breast cancer cell line BT474; conditions: mouse, in vivo
Protocol: (§1) The change of tumor volume and animal weight were measured for calculation of the efficacy (tumor-inhibitory efficacy) of the antibody-drug conjugates in the tumor-bearing mice.
(§2) After gently shaking, the mother solutions were sub-packed and stored at −80° C. Treatment solutions for use were obtained by dilution with normal saline, and a normal saline at the same concentration was used as solvent control.
(§3) The tumor-bearing mice (models obtained in 1.2) with tumor volume of 100-200 mm^3 were randomly assigned (the number of samples in each group was determined according to sample quantity), 7 mice per group. The dosage was 10 ml/kg. The route of administration was single intravenous injection in caudal vein. After administration, the tumor diameter was measured with vernier caliper twice a week for an observation period of 8 weeks, and the tumor volume was calculated according to the following equation: V=0.5 a^2×b, wherein a and b represent the […] of the tumor, respectively. Animal deaths were observed and recorded daily.
(§4) The tumor growth inhibition TGI (%) was calculated with the following equation for evaluating the antitumor efficacy of the antibody-drug conjugates: […]

[2] = tested on: human gastric cancer cell line NCI-N87; conditions: mouse, in vivo
Protocol: as §1, §2, §3, §4

[3] = tested on: ovarian cancer cell line SK-OV-3; conditions: mouse, in vivo
Protocol: as §1, §2, §3, §4

[4] = tested on: BT-474 (HER2+++); conditions: 1 h incubation, FACS
Protocol: (§5) The fluorescent intensity of cell surface binding was measured with FACS to determine the affinity of the drugs to the above cells.

[5] = tested on: JIMT-1 (HER2+); conditions: 1 h incubation, FACS
Protocol: as §5

[6] = tested on: MDA-MB-468 (HER2−); conditions: 1 h incubation, FACS
Protocol: as §5

[7] = tested on: JIMT-1 cells; conditions: 3 mg/kg, single injection via tail vein, 31st day after injection
Protocol: NOD/SCID mice were subcutaneously inoculated with JIMT-1 cells to establish a subcutaneous xenograft model of human-derived breast cancer. […] Each group has 8 mice, and the administration was a single injection via tail vein. Tumor volume was measured on the 31st day after the single injection (i.e., 43rd day after inoculation of JIMT-1 cells), and TGI was calculated. The efficacy was evaluated based on TGI, and the tolerance was evaluated based on body weight changes and death of the mice. TGI was calculated as described above in (1).

[8] = tested on: Calu-3 cells; conditions: 1 mg/kg, single injection via tail vein, 31st day after injection
Protocol: BALB/c Nude mice were subcutaneously inoculated with Calu-3 cells to establish a subcutaneous xenograft model of human-derived lung adenocarcinoma. […] Each group has 8 mice, and the administration was a single injection via tail vein. Tumor volume was measured on the 31st day after the single injection (36th day after inoculation of Calu-3 cells), and TGI was calculated. The efficacy was evaluated based on TGI, and the tolerance was evaluated based on body weight changes and death of the mice. TGI was calculated as described above in (1).

[9] = tested on: BR0438 tumor mass; conditions: 15 mg/kg, single injection via tail vein, 21st day after injection
Protocol: NOD/SCID mice were subcutaneously inoculated with BR0438 tumor mass to establish a subcutaneous xenograft model of human-derived breast cancer. The administration was conducted when the average tumor volume reached 173 mm^3. […] Each group has 8 mice, and the administration was a single injection via tail vein. Tumor volume was measured on the 21st day after the single injection, and TGI was calculated. The efficacy was evaluated based on TGI, and the tolerance was evaluated based on body weight changes and death of the mice. TGI was calculated as described above in (1).

[10] = tested on: GA0006 tumor mass; conditions: 15 mg/kg, single injection via tail vein, 21st day after injection
Protocol: BALB/c nude mice were subcutaneously inoculated with GA0006 tumor mass to establish a subcutaneous xenograft model of human-derived gastric cancer. The administration was conducted when the average tumor volume reached 141 mm^3. […] Each group has 8 mice, and the administration was a single injection via tail vein. Tumor volume was measured on the 21st day after the single injection, and TGI was calculated. The efficacy was evaluated based on TGI, and the tolerance was evaluated based on body weight changes and death of the mice. TGI was calculated as described above in (1).

[11] = tested on: BT-474 cells; conditions: 3 mg/kg, single injection via tail vein, 31st day after injection
Protocol: NOD/SCID mice were orthotopically inoculated with BT-474 cells to establish an orthotopic xenograft model of human-derived breast cancer. […] Each group has 10 mice, and the administration was a single injection via tail vein. Tumor volume was measured on the 31st day after the single injection (i.e., 39th day after inoculation of BT-474 cells), and TGI was calculated. The efficacy was evaluated based on TGI.
wherein VTe: Average tumor volume of treatment group at the end of observation • VTs: Average tumor volume of treatment group at the administration • VCe: Average tumor volume of control group at the end of observation • VCs: Average tumor volume of control group at the administration

In the case of T-DM1, the “TGI (%)” value [1] is reported as 54.80%, the “final tumor volume (mm^3)” value [2] is reported as 774.76 mm^3 and the “TGI (%)” value [3] is reported as −11.04%. For the same substance, the “affinity (EC50)” value [4] was 2.419 µg/mL, the “affinity (EC50)” value [5] was 0.5105 µg/mL and the “affinity (EC50) (ng/ml)” value [6] was “No binding”. For the same substance, the “TGI (%)” value [7] was 28%, the “TGI (%)” value [8] was 64% and the “TGI (%)” value [9] was 3.65%. For the same substance, the “TGI (%)” value [10] was 86.97% and the “TGI (%)” value [11] was 43%.
